# Test results taken from patent US9688695B2, “Imidazothiadiazole and imidazopyrazine derivatives as protease activated receptor 4 (PAR4) inhibitors for treating platelet aggregation” (BRISTOL-MYERS SQUIBB COMPANY, priority 2012, dated 2017).
# Target: PAR4 (Homo sapiens (Human), UniProt Q96RI0)
# Assay: FLIPR assay in PAR4-expressing HEK293 cells (PAR4 antagonist activity, calcium mobilization)
# Assay type: cell-based
# Details: H-Ala-Phe(4-F)-Pro-Gly-Trp-Leu-Val-Lys-Asn-Gly-NH2-induced calcium mobilization
# From the text: The FLIPR assay is an exemplary in vitro assay for measuring the activity of the PAR4 antagonists of the present invention. In this assay, intracellular calcium mobilization is induced in PAR4 expressing cells by a PAR4 agonist and calcium mobilization is monitored. See, e.g., Example A.
# HEK293 cells stably expressing PAR4 were generated by a standard method of transfection of human […] cDNA expression vector or by RAGE technology from Athersys Inc. (Cleveland, Ohio) and selected based on PAR4 protein expression of mRNA expression. […] These cells express endogenous PAR1 and can elicit calcium signal upon stimulation with PAR1 agonist peptide.
# Counter screens for agonist activity and PAR1 antagonist activity were also performed. Briefly, HEK293 EBNA PAR4 clone 20664.1J cells were plated 24 hrs. prior to experiment in 384 well, Poly-D-Lysine coated, black, clear bottom plates (Greiner Bio-One, Monroe, N.C.). Cells were plated at 20,000 cells/well in […] growth medium and incubated at 37° C. with 5% CO2 overnight. At time of assay, media was replaced with 40 μl 1× Hank's Buffered Saline Solution (HBSS) (with 10 mM HEPES) and 20 μl test compound also diluted in 1×HBSS buffer was added at various concentrations and 0.67% DMSO final concentration on the FDSS for agonist measurement. The cells were then incubated for 30 minutes at room temperature followed by addition of 20 μl of agonist peptide for antagonist measurement on the FDSS.
# As indicated above, the FLIPR assay, an in vitro assay, measures the PAR4 antagonist activity of compounds tested as described in Example A. The PRP assay, an in vitro assay, measures the PAR4 antagonist assay of the compounds tested in the presence of plasma proteins and thrombin agonist as described in Example C.
# PAR4, sequence (Q96RI0 18-385): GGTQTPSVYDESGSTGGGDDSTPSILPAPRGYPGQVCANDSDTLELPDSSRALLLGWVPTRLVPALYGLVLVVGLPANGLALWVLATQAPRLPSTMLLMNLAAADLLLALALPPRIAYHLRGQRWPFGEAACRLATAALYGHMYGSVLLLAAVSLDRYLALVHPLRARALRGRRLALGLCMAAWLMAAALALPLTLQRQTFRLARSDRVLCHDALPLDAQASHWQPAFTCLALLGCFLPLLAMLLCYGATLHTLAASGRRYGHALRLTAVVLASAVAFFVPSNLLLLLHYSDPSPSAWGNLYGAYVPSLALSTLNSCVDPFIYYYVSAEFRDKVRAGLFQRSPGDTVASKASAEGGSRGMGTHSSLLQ
row,Structure (SMILES),EC50
1,"COc1ccc(C2(c3nc(COc4cc(OC)cc5oc(-c6cn7nc(OC)sc7n6)cc45)cs3)CCOCC2)cc1 [Example 159, 2-Methoxy-6-(6-methoxy-4-((2-(4-(4-methoxyphenyl)tetrahydro-2H-pyran-4-yl)thiazol-4-yl)methoxy)benzofuran-2-yl)imidazo[2,1-b][1,3,4]thiadiazole]",0.41 nM
2,"COC(=O)c1ccc(C2(c3nc(COc4cc(OC)cc5oc(-c6cn7nc(OC)sc7n6)cc45)cs3)CCOCC2)cc1 [Example 160, Methyl 4-(4-(4-(((6-methoxy-2-(2-methoxyimidazo[2,1-b][1,3,4]thiadiazol-6-yl)benzofuran-4-yl)oxy)methyl)thiazol-2-yl)tetrahydro-2H-pyran-4-yl)benzoate]",0.5 nM
3,"COc1cc(OCc2csc(C3(c4ccc(Cl)cc4)CCOCC3)n2)c2cc(-c3cn4nc(OC)sc4n3)oc2c1 [Example 154, 6-(4-((2-(4-(4-Chlorophenyl)tetrahydro-2H-pyran-4-yl)thiazol-4-yl)methoxy)-6-methoxybenzofuran-2-yl)-2-methoxyimidazo[2,1-b][1,3,4]thiadiazole]",1.1 nM
4,"COc1nn2cc(-c3cc4c(OCc5csc(-c6ccccc6)n5)cc(Cl)cc4o3)nc2s1 [Example 187, 6-(6-Chloro-4-((2-phenylthiazol-4-yl)methoxy)benzofuran-2-yl)-2-methoxyimidazo[2,1-b][1,3,4]thiadiazole]",1.6 nM
5,"COc1cc(OCc2nc(C3(F)CCOCC3)sc2C(F)(F)F)c2cc(-c3cn4nc(OC)sc4n3)oc2c1 [Example 132, 6-(4-((2-(4-Fluorotetrahydro-2H-pyran-4-yl)-5-(trifluoromethyl)thiazol-4-yl)methoxy)-6-methoxybenzofuran-2-yl)-2-methoxyimidazo[2,1-b][1,3,4]thiadiazole]",1.9 nM
6,"COc1cc(OCc2csc(C3(OC)CCOCC3)n2)c2cc(-c3cn4nc(OC)sc4n3)oc2c1 [Example 120, 2-Methoxy-6-(6-methoxy-4-((2-(4-methoxytetrahydro-2H-pyran-4-yl)thiazol-4-yl)methoxy)benzofuran-2-yl)imidazo[2,1-b][1,3,4]thiadiazole]",0.45 nM
7,COc1cc(OCc2csc(C3CCOCC3)n2)c2cc(-c3cn4nc(C)ccc4n3)oc2c1 [Example 213],3.6 nM
8,COc1cc(OCc2csc(-c3cccc(O)c3)n2)c2cc(-c3cn4nc(C)ccc4n3)oc2c1 [Example 222],0.65 nM
9,COc1cc(OCc2nc(-c3ccnc(F)c3)sc2C)c2cc(-c3cn4nc(C)ccc4n3)oc2c1 [Example 227],0.31 nM
10,"COc1cc(OCc2csc(C3(O)CCN(C(=O)OC(C)(C)C)CC3)n2)c2cc(-c3cn4nc(OC)sc4n3)oc2c1 [Example 129, tert-Butyl 4-hydroxy-4-(4-(((6-methoxy-2-(2-methoxyimidazo[2,1-b][1,3,4]thiadiazol-6-yl)benzofuran-4-yl)oxy)methyl)thiazol-2-yl)piperidine-1-carboxylate]",0.96 nM
11,COc1cc(OCc2nc(N3CCOCC3)sc2Cl)c2cc(-c3cn4nc(OC)sc4n3)oc2c1 [Example 84],0.97 nM
12,"COc1cc(OCc2csc(C3(O)CCOC3)n2)c2cc(-c3cn4nc(OC)sc4n3)oc2c1 (centres unmarked) [Example 123, 3-(4-(((6-Methoxy-2-(2-methoxyimidazo[2,1-b][1,3,4]thiadiazol-6-yl)benzofuran-4-yl)oxy)methyl)thiazol-2-yl)tetrahydrofuran-3-ol]",0.5 nM
13,COc1cc(OCc2csc(N3CCC(N(C)C)CC3)n2)c2cc(-c3cn4nc(C)ccc4n3)oc2c1 [Example 252],871 nM
14,"COc1cc(OCc2csc(C3(c4ccc(Br)cc4)CCOCC3)n2)c2cc(-c3cn4nc(OC)sc4n3)oc2c1 [Example 153, 6-(4-((2-(4-(4-Bromophenyl)tetrahydro-2H-pyran-4-yl)thiazol-4-yl)methoxy)-6-methoxybenzofuran-2-yl)-2-methoxyimidazo[2,1-b][1,3,4]thiadiazole]",1.7 nM
15,"COc1cc(OCc2nc(-c3ccc(C(=O)N(C)C)cc3)sc2C(C)C)c2cc(-c3cn4nc(OC)sc4n3)oc2c1 [Example 42, 4-(5-Isopropyl-4-(((6-methoxy-2-(2-methoxyimidazo[2,1-b][1,3,4]thiadiazol-6-yl)benzofuran-4-yl)oxy)methyl)thiazol-2-yl)-N,N-dimethylbenzamide]",2.5 nM
16,"COc1cc(OCc2csc(C3(O)CCCCC3)n2)c2cc(-c3cn4nc(OC)sc4n3)oc2c1 [Example 133, 1-(4-(((6-Methoxy-2-(2-methoxyimidazo[2,1-b][1,3,4]thiadiazol-6-yl)benzofuran-4-yl)oxy)methyl)thiazol-2-yl)cyclohexanol]",0.37 nM
17,COc1cc(OCc2csc(-c3cnccn3)n2)c2cc(-c3cn4nc(OC)sc4n3)oc2c1 [Example 32],1.3 nM
18,COc1cc(OCc2csc(-c3ccc(C(=O)NC4COC4)cc3)n2)c2cc(-c3cn4nc(OC)sc4n3)oc2c1 [Example 295],92 nM

row,Structure (SMILES),EC50
1,COCCN(CCOC)c1nc(COc2cc(OC)cc3oc(-c4cn5nc(C)ccc5n4)cc23)cs1 [Example 246],1.4 nM
2,COc1cc(OCc2csc(N3C[C@@H](C)O[C@@H](C)C3)n2)c2cc(-c3cn4nc(C)ccc4n3)oc2c1 [Example 216],0.99 nM
3,"COc1cc(OCc2csc(N3CCOCC3)n2)c2cc(-c3cn4nc([C@H](C)F)sc4n3)oc2c1 [Example 193, (S)-4-(4-(((2-(2-(1-Fluoroethyl)imidazo[2,1-b][1,3,4]thiadiazol-6-yl)-6-methoxybenzofuran-4-yl)oxy)methyl)thiazol-2-yl)morpholine]",0.91 nM
4,"COc1cc(OCc2csc(C3(F)CCCCC3)n2)c2cc(-c3cn4nc(OC)sc4n3)oc2c1 [Example 134, 6-(4-((2-(1-Fluorocyclohexyl)thiazol-4-yl)methoxy)-6-methoxybenzofuran-2-yl)-2-methoxyimidazo[2,1-b][1,3,4]thiadiazole]",1.2 nM
5,COc1cc(OCc2nc(-c3ccc(C(N)=O)cc3)sc2C)c2cc(-c3cn4nc(OC)sc4n3)oc2c1 [Example 70],0.89 nM
6,"COc1cc(OCc2csc(-c3ccncc3)n2)c2cc(-c3cn4nc(C)ccc4n3)oc2c1 [Example 211, 4-(((6-Methoxy-2-(6-methylimidazo[1,2-b]pyridazin-2-yl)benzofuran-4-yl)oxy)methyl)-2-(pyridin-4-yl)thiazole]",0.72 nM
7,COc1cc(OCc2csc(-c3ccc(OC(F)(F)F)cc3)n2)c2cc(-c3cn4nc(OC)sc4n3)oc2c1 [Example 29],1.4 nM
8,"COc1cc(OCc2csc(C3(c4cccc(Cl)c4)CCOCC3)n2)c2cc(-c3cn4nc(OC)sc4n3)oc2c1 [Example 155, 6-(4-((2-(4-(3-Chlorophenyl)tetrahydro-2H-pyran-4-yl)thiazol-4-yl)methoxy)-6-methoxybenzofuran-2-yl)-2-methoxyimidazo[2,1-b][1,3,4]thiadiazole]",0.62 nM
9,COc1cc(OCc2csc(N3CCOC(C)C3)n2)c2cc(-c3cn4nc(C)ccc4n3)oc2c1 (centres unmarked) [Example 277],1.1 nM
10,"COc1cc(OCc2csc(N3CCN(C)CC3)n2)c2cc(-c3cn4nc(C)ccc4n3)oc2c1 [Example 207, 4-(((6-Methoxy-2-(6-methylimidazo[1,2-b]pyridazin-2-yl)benzofuran-4-yl)oxy)methyl)-2-(4-methylpiperazin-1-yl)thiazole]",7.7 nM
11,COc1cc(OCc2csc(-c3ccc(F)cc3F)n2)c2cc(-c3cn4nc(OC)sc4n3)oc2c1 [Example 24],1.1 nM
12,COc1cc(OCc2csc(-c3ccc(C(=O)N4C(C)CCC4C)cc3)n2)c2cc(-c3cn4nc(OC)sc4n3)oc2c1 (centres unmarked) [Example 317],1.6 nM
13,"COc1nn2cc(-c3cc4c(OCc5csc(-c6ccc(C(=O)N(C)C)cc6)n5)cc(F)cc4o3)nc2s1 [Example 185, 4-(4-(((6-Fluoro-2-(2-methoxyimidazo[2,1-b][1,3,4]thiadiazol-6-yl)benzofuran-4-yl)oxy)methyl)thiazol-2-yl)-N,N-dimethylbenzamide]",0.41 nM
14,"COc1cc(OCc2csc(C3(F)CC(C)OC(C)C3)n2)c2cc(-c3cn4nc([C@H](C)F)sc4n3)oc2c1 (stereo partly drawn) [Example 199, 6-(4-((2-(4-Fluoro-2,6-dimethyltetrahydro-2H-pyran-4-yl)thiazol-4-yl)methoxy)-6-methoxybenzofuran-2-yl)-2-((S)-1-fluoroethyl)imidazo[2,1-b][1,3,4]thiadiazole]",1.1 nM
15,COc1cc(OCc2csc(N3CCN(Cc4cccnc4)CC3)n2)c2cc(-c3cn4nc(C)ccc4n3)oc2c1 [Example 270],5.8 nM
16,"COc1cc(OCc2csc(-c3ccc(OC(F)(F)F)cc3)n2)c2cc(-c3cn4nc(C)ccc4n3)oc2c1 [Example 210, 4-(((6-Methoxy-2-(6-methylimidazo[1,2-b]pyridazin-2-yl)benzofuran-4-yl)oxy)methyl)-2-(4-(trifluoromethoxy)phenyl)thiazole]",0.86 nM
17,COc1cc(OCc2nc(-c3cccc(COC(C)=O)c3)sc2C)c2cc(-c3cn4nc(OC)sc4n3)oc2c1 [Example 76],0.42 nM
